Experiments:
[1] = molecular target: T1, CYP1B1 (Homo sapiens, UniProt Q16678); test: CYP1B1 inhibition in live human cells (HEK293); type: cell-based
T1 sequence (Q16678 1-543): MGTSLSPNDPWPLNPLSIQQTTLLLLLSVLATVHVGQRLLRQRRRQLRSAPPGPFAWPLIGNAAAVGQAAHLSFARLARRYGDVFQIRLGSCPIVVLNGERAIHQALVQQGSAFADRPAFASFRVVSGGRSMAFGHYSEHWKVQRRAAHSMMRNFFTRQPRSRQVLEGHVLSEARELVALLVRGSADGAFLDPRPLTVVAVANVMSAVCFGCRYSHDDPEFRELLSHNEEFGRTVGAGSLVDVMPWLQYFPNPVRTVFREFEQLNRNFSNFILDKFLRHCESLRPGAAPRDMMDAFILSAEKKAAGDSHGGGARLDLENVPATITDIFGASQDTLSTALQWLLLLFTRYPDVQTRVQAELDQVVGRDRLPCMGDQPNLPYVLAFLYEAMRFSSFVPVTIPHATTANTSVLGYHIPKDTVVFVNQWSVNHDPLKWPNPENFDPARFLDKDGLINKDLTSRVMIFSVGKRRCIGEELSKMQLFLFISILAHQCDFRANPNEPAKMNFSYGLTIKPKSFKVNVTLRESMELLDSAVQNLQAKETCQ

[2] = molecular target: T2, CYP2C19 (Homo sapiens, UniProt P33261); test: CYP2C19 inhibition in Saccharosomes; type: biochemical; conditions: Saccharosomes containing CYP2C19
T2 construct: host or cells: yeast microsomes (Saccharosomes)
T2 sequence (P33261 whole entry): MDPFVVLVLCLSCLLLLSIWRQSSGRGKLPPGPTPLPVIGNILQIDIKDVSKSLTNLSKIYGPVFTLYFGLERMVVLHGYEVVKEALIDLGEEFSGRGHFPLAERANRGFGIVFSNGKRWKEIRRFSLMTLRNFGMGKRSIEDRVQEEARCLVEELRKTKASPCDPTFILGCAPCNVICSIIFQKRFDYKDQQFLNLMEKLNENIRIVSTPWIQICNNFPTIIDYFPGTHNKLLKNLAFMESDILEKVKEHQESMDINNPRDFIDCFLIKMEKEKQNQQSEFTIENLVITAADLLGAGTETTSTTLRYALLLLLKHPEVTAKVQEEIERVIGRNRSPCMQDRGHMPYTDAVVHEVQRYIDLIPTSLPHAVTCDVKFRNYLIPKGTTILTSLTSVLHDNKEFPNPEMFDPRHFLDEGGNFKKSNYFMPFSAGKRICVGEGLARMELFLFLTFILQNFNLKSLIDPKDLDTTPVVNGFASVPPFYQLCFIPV

[3] = molecular target: T3, CYP2B6 (Homo sapiens, UniProt P20813); test: CYP2B6 inhibition in Saccharosomes; type: biochemical; conditions: Saccharosomes containing CYP2B6
T3 construct: host or cells: yeast microsomes (Saccharosomes)
T3 sequence (P20813 1-491): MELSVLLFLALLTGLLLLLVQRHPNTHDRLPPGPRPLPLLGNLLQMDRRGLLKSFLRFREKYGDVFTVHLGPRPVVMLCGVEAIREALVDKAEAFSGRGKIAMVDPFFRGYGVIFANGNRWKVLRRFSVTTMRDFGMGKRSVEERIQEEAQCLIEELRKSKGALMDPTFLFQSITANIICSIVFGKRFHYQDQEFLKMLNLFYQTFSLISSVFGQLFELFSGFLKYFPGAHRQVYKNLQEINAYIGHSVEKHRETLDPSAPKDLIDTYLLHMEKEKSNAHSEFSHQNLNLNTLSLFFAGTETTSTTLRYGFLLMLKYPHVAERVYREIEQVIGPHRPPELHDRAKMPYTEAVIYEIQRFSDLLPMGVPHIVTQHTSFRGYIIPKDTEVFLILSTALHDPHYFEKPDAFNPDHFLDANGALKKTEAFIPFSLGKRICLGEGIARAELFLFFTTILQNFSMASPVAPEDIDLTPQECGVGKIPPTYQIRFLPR

[4] = molecular target: T4, CYP2A6 (Homo sapiens, UniProt P11509); test: CYP2A6 inhibition in Saccharosomes; type: biochemical
T4 construct: host or cells: yeast microsomes (Saccharosomes)
T4 sequence (P11509 1-494): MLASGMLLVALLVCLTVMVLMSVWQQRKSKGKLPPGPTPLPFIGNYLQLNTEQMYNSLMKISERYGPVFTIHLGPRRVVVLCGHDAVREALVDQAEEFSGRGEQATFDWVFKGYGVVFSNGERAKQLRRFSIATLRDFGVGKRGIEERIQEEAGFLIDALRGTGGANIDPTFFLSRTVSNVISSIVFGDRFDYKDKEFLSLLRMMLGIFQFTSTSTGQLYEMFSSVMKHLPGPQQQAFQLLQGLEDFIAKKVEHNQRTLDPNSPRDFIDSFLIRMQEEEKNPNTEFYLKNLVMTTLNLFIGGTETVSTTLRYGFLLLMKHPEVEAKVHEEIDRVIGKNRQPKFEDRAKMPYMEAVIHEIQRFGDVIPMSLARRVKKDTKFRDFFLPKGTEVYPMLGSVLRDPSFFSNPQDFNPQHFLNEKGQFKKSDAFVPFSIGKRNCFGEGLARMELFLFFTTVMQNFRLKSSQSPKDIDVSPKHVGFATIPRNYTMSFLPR
Description: Example 25. IC50 determination for best compound against CYP1A1, CYP1B1 and other CYPs in Saccharosomes. Compounds were serially diluted to six different concentrations with 10% DMSO in a Sero-Well white microplate. The experiment was performed in a similar way as described above in examples 23 and 24.

- IC50 [1]: 265 nM
- inhibition at 20 µM [2]: 7%
- inhibition at 20 µM [3]: 15%
- Inhibition of CYP2A6 at 20 μM [4]: No Inhibition
Compound: COc1c(C(=O)/C=C/c2cccnc2)c(O)c(OC)c2occc12 [Compound 8, 3-(4,7-dimethoxy-6-hydroxybenzofuran-5-yl)-1-(pyridin-3-yl)-3-oxopropene]

Reference: US20210284618A1, “FURANOCHALCONES AS INHIBITORS OF CYP1A1, CYP1A2 AND CYP1B1 FOR CANCER CHEMOPREVENTION” (Council of Scientific & Industrial Research, priority 2016, published 2021)
